{"source": "patent US6919338B2", "about": "“Substituted quinazoline derivatives and their use as inhibitors of aurora-2 kinase” (AstraZeneca AB, priority 2000, dated 2005)", "key": {"[1]": {"system": "human tumour cell line MCF7", "assay": "In vitro cell proliferation assay", "format": "cell-based", "details": "MCF7, 72 h, MCF-7 cells, 3 days with compound, CyQUANT, read-out: concentration giving 50% inhibition of cell proliferation", "description": "(a) In Vitro Cell Proliferation Assay\nThis assay determines the ability of a test compound to inhibit the growth of adherent mammalian cell lines, for example the human tumour cell line MCF7. MCF-7 (ATCC HTB-22) or other adherent cells were typically seeded at 1×10^3 cells per well (excluding the peripheral wells) in DMEM (Sigma Aldrich) without phenol red, plus 10% foetal calf serum, 1% L-glutamine and 1% penicillin/streptomycin in 96 well tissue culture treated clear plates (Costar). The following day (day 1), the media was removed from a no treatment control plate and the plate stored at −80° C. The remaining plates were dosed with compound (diluted from 10 mM stock in DMSO using DMEM (without phenol red, 10% FCS, 1% L-glutamine, 1% penicillin/streptomycin). Untreated control wells were included on each plate. After 3 days in the presence/absence of compound (day 4) the media was removed and the plates stored at −80° C. Twenty four hours later the plates were thawed at room temperature and cell density determined using the CyQUANT cell proliferation assay kit (c-7026/c-7027 Molecular Probes Inc.) according to manufacturers directions. Briefly, 200 μl of a cell lysis/dye mixture (10 μl of 20× cell lysis buffer B, 190 μl of sterile water, 0.25 μl of CYQUANT GR dye) was added to each well and the plates incubated at room temperature for 5 minutes in the dark. […]"}, "MCF7 cells": {"system": "MCF7 cells", "assay": "In vitro cell cycle analysis assay", "format": "cell-based, human", "details": "24 hours, 10 μM Compound 52 (text b2735 says 1 μM)", "procedure": "(a) In Vitro Cell Cycle Analysis Assay\nThis assay determines the ability of a test compound to arrest cells in specific phases of the cell cycle. Many different mammalian cell lines could be used in this assay and MCF7 cells are included here as an example. MCF-7 cells were seeded at 3×10^5 cells per T25 flask (Costar) in 5 ml DMEM (no phenol red 10% FCS, 1% L-glutamine 1% penicillin/streptomycin). Flasks were then incubated overnight in a humidified 37° C. incubator with 5% CO2. The following day 1 ml of DMEM (no phenol red 10% FCS, 1% L-glutamine 1% penicillin/streptomycin) carrying the appropriate concentration of test compound solubilised in DMSO was added to the flask. A no compound control treatments was also included (0.5% DMSO). The cells were then incubated for a defined time (usually 24 hours) with compound. […] The samples were then transferred to LPS tubes and DNA content per cell analysed by Fluorescence activated cell sorting (FACS) using a FACScan flow cytometer (Becton Dickinson). Typically 25000 events were counted and recorded using CellQuest v1.1 software (Verity Software). Cell cycle distribution of the population was calculated using Modfit software (Verity Software) and expressed as percentage of cells in G0/G1, S and G2/M phases of the cell cycle. […]"}, "aurora2 kinase": {"molecular_target": "T1, aurora2 kinase (Homo sapiens, UniProt O14965)", "T1 construct": "made in house; host or cells: Spodoptera frugiperda Sf21 insect cells (baculovirus)", "T1 sequence (O14965 1-403)": "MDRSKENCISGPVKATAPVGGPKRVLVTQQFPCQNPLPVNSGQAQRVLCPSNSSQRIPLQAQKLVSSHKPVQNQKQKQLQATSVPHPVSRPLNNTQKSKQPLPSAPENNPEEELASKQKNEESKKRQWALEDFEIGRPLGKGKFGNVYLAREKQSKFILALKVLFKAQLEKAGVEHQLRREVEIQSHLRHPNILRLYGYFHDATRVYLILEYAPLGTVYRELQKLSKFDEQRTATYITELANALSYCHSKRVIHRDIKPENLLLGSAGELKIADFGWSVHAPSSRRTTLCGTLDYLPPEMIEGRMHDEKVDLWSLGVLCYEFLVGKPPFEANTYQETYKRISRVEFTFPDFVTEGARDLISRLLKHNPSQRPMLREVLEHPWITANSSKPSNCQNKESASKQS", "assay": "In vitro aurora2 kinase inhibition test", "format": "biochemical"}}}
{"smiles": "COc1cc2c(Nc3nc(CC(=O)Nc4ccc(F)cc4)cs3)ncnc2cc1OCCCN1CCOCC1", "note": "[Compound 52]", "values": [{"measurement": "IC50", "setting": "[1]", "value": 616, "unit": "nM"}, {"measurement": "% Cells in G2/M", "setting": "MCF7 cells", "value": ">50", "unit": "%"}, {"measurement": "IC50", "setting": "aurora2 kinase", "value": 167, "unit": "nM"}]}
